These results are taken from patent publication US20060088471A1, “Compounds for enzyme inhibition” (Proteolix, Inc., priority 2004, published 2006).

pIC50: −log10 of the molar value.

For assay [1], the target named is human 20S proteasome (hu20S) (Homo sapiens, UniProt P28074). Nature of the assay: Human 20S chymotryptic activity, Suc-LLVY-AMC cleavage. Format: biochemical. Conditions: for Human 20S Chymotryptic Activity kinact./Ki: 10 μM Suc-LLVY-AMC, 1 nM hu20S, 20 mM Tris pH 8.0, 0.5 mM EDTA, 0.03% SDS, 5% DMSO; for pIC50 / kinact/KI: Suc-LLVY-AMC substrate; for pIC50: read-out: Human 20S Chymotryptic Activity Vf IC50; for kinact/KI: read-out: Human 20S Chymotryptic Activity kobs/[I]. As for the experimental part: Proteasome activity was measured via LLVY-AMC cleavage. Fluorescence was measured using the excitation wavelength of 340 nm and an emission wavelength of 465 nm. The assay was carried out in 20 mM Tris, pH 8.0, 0.5 mM EDTA, 0.03% SDS buffer with 5% DMSO.
(§1) The ability of Inhibitor 1 to inhibit the proteolytic activity of the human 20S proteasome (hu20S) both in vitro and in cells was tested using the fluorescent substrate for the chymotryptic-like activity of the proteasome, Suc-LLVY-AMC as shown in FIG. 1 and Table 1. Fluorescence was measured using the excitation wavelength of 340 nm and an emission wavelength of 465 nm. […] The assay was carried out in 20 mM Tris, pH 8.0, 0.5 mM EDTA, 0.03% SDS buffer with 5% DMSO.

Assay [2] deals with T1, chymotryptic-like activity of the proteasome in HT29 cells (Homo sapiens, UniProt P28074).
T1 construct: endogenous in cells; host or cells: HT29 cells
Nature of the assay: Cell chymotryptic activity in HT29 cells. It is filed as cell-based. Particulars: 4 hr. As for the experimental part:
as §1

In assay [3] the test system is HT29 cells. Put plainly: Cell viability, HT29. Particulars: Homo sapiens, HT-29, 72 hr. Format: cell-based.
Assay [4] deals with chymotryptic-like activity of the proteasome in 8226 cells. Nature of the assay: Cell chymotryptic activity in 8226 cells. Format: cell-based, human. Conditions: 1 hr. As for the experimental part:
as §1

In assay [5] the test system is 8226 cells. Nature of the assay: Cell viability, 8226. It is filed as cell-based. Particulars: 24 hr.
Assay [6] relates to p53 levels. Conditions: epoxomicin treatment; cited from earlier work.
Assay [7] addresses purified human 20S proteasome (Homo sapiens, UniProt P28074). Nature of the assay: Binding to the proteasome via fluorescence polarization. Conditions: 2 nM inhibitor. As for the experimental part: Fluorescence was measured using the excitation wavelength of 485 nm and an emission wavelength of 535 nm.
2 nM of Inhibitor 1 was incubated with a serial dilution of purified human 20S proteasome (from 400 pM to 40 nM) in a 20 mM Tris, pH 8.0, 0.5 mM EDTA, 0.03% SDS buffer and was allowed to bind to the proteasome during an incubation at room temperature as shown in FIG. 2. Fluorescence polarization was measured by exciting the samples at 485 nm and detecting the emitted fluorescence at 535 nm in a microwell plate in a fluorimeter capable of measuring fluorescence polarization (Tecan GENios Pro). […] When the concentration of human 20S was low (free Inhibitor 1), the mP was about 40 millipolarization units (mP). The fluorescence polarization at high concentrations of human 20S (bound Inhibitor 1) was about 110 mP.
For orientation: Polarisation of emitted light reports the rotation of a fluorescent probe.

For assay [8], the target named is β5 subunit of human 20S or whole blood lysate (Homo sapiens, UniProt P28074). Nature of the assay: Streptavidin gel shift assay compared with chymotryptic substrate cleavage assay. It is filed as biochemical. Particulars: probe Inhibitor 3.
Method: Human 20S (50 nM) or whole blood lysate (100 mg/mL) was pretreated with either DMSO or Inhibitor 4 (200 nM) for 1 h. Inhibitor 3 (1 μM) was then added. After 1 h, unbound Inhibitor 3 was removed using a spin desalting column and the resulting solution was diluted (1:10) in 1% SDS and heated at 90° C. to denature the proteins. The solution was cooled to room temperature and streptavidin (±1 μg/15 μL) was added. The inhibitor/streptavidin solution was then added to NuPAGE sample buffer at room temperature (not boiled). The sample was then loaded on NuPAGE gel and run at 150 V in a refrigerator at approximately 4° C.

As to `CC(=O)N[C@@H](CCc1ccccc1)C(=O)N[C@@H](CC(C)C)C(=O)N[C@@H](Cc1ccccc1)C(=O)N[C@@H](CC(C)C)C(=O)[C@@]1(C)CO1` [YU101], the “Human 20S Chymotryptic Activity kinact./Ki” value in assay [1] was 105,000 M^-1sec^-1. For the same compound, the pIC50 in assay [1] was 8.70; in assay [2] it was 8.48; in assay [3] it was 8.17; in assay [4] it was 8.14; in assay [5], 8.30. In addition, in assay [1], the kinact/KI was found to be 93500 M⁻¹ s⁻¹.

On to `CC[C@H](C)[C@H](NC(=O)[C@H]([C@@H](C)CC)N(C)C(C)=O)C(=O)N[C@H](C(=O)N[C@@H](CC(C)C)C(=O)[C@@]1(C)CO1)[C@@H](C)O` [epoxomicin], for which the p53 levels stabilized entry in assay [6] is given as “over 50 fold”.

Regarding `CC(C)C[C@H](NC(=O)[C@H](CCc1ccccc1)NC(=O)c1ccc(C2=C3C=CC(O)C=C3Oc3cc(O)ccc32)c(C(=O)O)c1)C(=O)N[C@@H](Cc1ccccc1)C(=O)N[C@@H](CC(C)C)C(=O)[C@@]1(C)CO1` (single isomer, unassigned) [Inhibitor 1], the “Human 20S Chymotryptic Activity kinact./Ki” value in assay [1] is 27,000 M^-1sec^-1. The results for the pIC50 in assay [1], in assay [4] and in assay [5] were 8.03, 6.47 and 6.72, respectively. Further, the kinact/KI in assay [1] was found to be 23000 M⁻¹ s⁻¹. Besides, the “Fluorescence polarization, bound Inhibitor 1” value in assay [7] (high concentrations of human 20S) is recorded as “about 110 mP”. For the same compound, the “Fluorescence polarization, free Inhibitor 1” value in assay [7] (low concentration of human 20S) was “about 40 mP”.

As for `CC(C)C[C@H](NC(=O)[C@H](CCc1ccccc1)NC(=O)CN1CCOCC1)C(=O)N[C@@H](Cc1ccccc1)C(=O)N[C@@H](CC(C)C)C(=O)[C@@]1(C)CO1` [Inhibitor 4], in assay [8], the “Dose response: gel shift assay versus chymotryptic substrate cleavage assay” value is reported as “comparable IC50 values”.

One may read the pIC50 as the IC50 on a negative log10 scale, so that one unit is a factor of ten.
